In patent US5972953A, “Brain cell protective agent” (priority 1993, dated 1999):
Like-named read-outs stand apart in the source and are kept apart here.

Test system: cultured nerve cells (cerebral cortex)
Assay: cells
Format: cell-based, Wistar rat
Conditions: Rattus norvegicus, Cerebral cortex neuron
[1] = 10 mM glutamate, 24 hours at 37° C., LDH leakage, read-out: ED50 (the source's name)

Structure (SMILES) | EC50 [1] [nM] | EC50 (24 h, read-out: ED50) [nM]
CN(C(=O)/C=C/c1ccccc1)[C@@H]1CC[C@@]2(O)[C@H]3Cc4ccc(O)c5c4[C@@]2(CCN3CC2CC2)[C@H]1O5 [Compound 76, 17-cyclopropylmethyl-3,14β-dihydroxy-4,5α-epoxy-6β-(N-methylcinnamamido)morphinan] | 6790 | –
CC(=O)Oc1ccc2c3c1O[C@H]1[C@H](N(C)C(=O)/C=C/c4ccccc4)CC[C@@]4(O)[C@@H](C2)N(CC2CC2)CC[C@]314 [Compound 114, 17-cyclopropylmethyl-3-acetoxy-14β-hydroxy-4,5α-epoxy-6β-(N-methylcinnamamido)morphinan] | – | 60300
CN(C(=O)Cc1cccc2ccccc12)[C@@H]1CC[C@@]2(O)[C@H]3Cc4ccc(O)c5c4[C@@]2(CCN3CC2CC2)[C@H]1O5 [Compound 86, 17-cyclopropylmethyl-3,14β-dihydroxy-4,5α-epoxy-6β-(N-methyl-1-naphthylacetoamido)morphinan] | 7360 | –
CN(C(=O)NCc1ccccc1)[C@H]1CC[C@@]2(O)[C@H]3Cc4ccc(O)c5c4[C@@]2(CCN3CC2CC2)[C@H]1O5 [Compound 104, 17-Cyclopropylmethyl-3,14β-dihydroxy-4,5α-epoxy-6α-(N-methyl-N'-benzylureido)morphinan] | 580 | –
CC(C)CN(C(=O)Cc1ccc(Cl)c(Cl)c1)[C@@H]1CC[C@@]2(O)[C@H]3Cc4ccc(O)c5c4[C@@]2(CCN3CC2CC2)[C@H]1O5 [Compound 39, 17-cyclopropylmethyl-3,14β-dihydroxy-4,5α-epoxy-6β-(N-isobutyl-3,4-dichlorophenylacetoamido)morphinan] | 390 | –
O=C(/C=C/c1ccoc1)S[C@@H]1CC[C@@]2(O)[C@H]3Cc4ccc(O)c5c4[C@@]2(CCN3CC2CC2)[C@H]1O5 (relative stereo) [Compound 119, 17-cyclopropylmethyl-4,5α-epoxy-3,14β-dihydroxy-6β-[trans-3-(3-furyl)acryloylthio]morphinan] | 1470 | –
O=C(/C=C/c1cccc(C(F)(F)F)c1)N(CCCc1ccccc1)[C@@H]1CC[C@@]2(O)[C@H]3Cc4ccc(O)c5c4[C@@]2(CCN3CC2CC2)[C@H]1O5 [Compound 69, 17-cyclopropylmethyl-3,14β-dihydroxy-4,5α-epoxy-6β-[N-(3-phenylpropyl)-3-trifluoromethylcinnamamido]-morphinan] | 160 | –
Oc1ccc2c3c1O[C@H]1[C@H](N(CCCCc4ccccc4)Cc4ccccc4)CC[C@@]4(O)[C@@H](C2)N(CC2CC2)CC[C@]314 [Compound 13, 17-cyclopropylmethyl-3,14β-dihydroxy-4,5α-epoxy-6β-(N-4-phenylbutylbenzylamino) morphinan] | 210 | –
CCCCN(C(=O)/C=C/c1cccc(C(F)(F)F)c1)[C@@H]1CC[C@@]2(O)[C@H]3Cc4ccc(O)c5c4[C@@]2(CCN3CC2CC2)[C@H]1O5 [Compound 66, 17-cyclopropylmethyl-3,14β-dihydroxy-4,5α-epoxy-6β-(N-butyl-3-trifluoromethylcinnamamido)morphinan] | 330 | –
CN(C(=O)Cc1cccc(Cl)c1)[C@@H]1CC[C@@]2(O)[C@H]3Cc4ccc(O)c5c4[C@@]2(CCN3CC2CC2)[C@H]1O5 [Compound 85, 17-cyclopropylmethyl-3,14β-dihydroxy-4,5α-epoxy-6β-(N-methyl-3-chlorophenylacetoamido) morphinan] | 4220 | –
CC(C)CN(C(=O)CCCCC(=O)c1ccccc1)[C@@H]1CC[C@@]2(O)[C@H]3Cc4ccc(O)c5c4[C@@]2(CCN3CC2CC2)[C@H]1O5 [Compound 61, 17-cyclopropylmethyl-3,14β-dihydroxy-4,5α-epoxy-6β-(N-isobutyl-5-benzoylpentanoamido)morphinan] | 2220 | –
O=C(/C=C/c1cccc(C(F)(F)F)c1)N(CC1CCCCC1)[C@@H]1CC[C@@]2(O)[C@H]3Cc4ccc(O)c5c4[C@@]2(CCN3CC2CC2)[C@H]1O5 [Compound 68, 17-cyclopropylmethyl-3,14β-dihydroxy-4,5α-epoxy-6β-(N-cyclohexylmethyl-3-trifluoromethylcinnamamido)morphinan] | – | 100
CN(Cc1ccccc1)[C@H]1CC[C@@]2(O)[C@H]3Cc4ccc(O)c5c4[C@@]2(CCN3CC2CC2)[C@H]1O5 [Compound 95, 17-cyclopropylmethyl-3,14β-dihydroxy-4,5α-epoxy-6α-(N-methylbenzylamino)morphinan] | 560 | –
CCC/C=C/C(=O)N(C)[C@@H]1CC[C@@]2(O)[C@H]3Cc4ccc(O)c5c4[C@@]2(CCN3CC2CC2)[C@H]1O5 [Compound 75, 17-cyclopropylmethyl-3,14β-dihydroxy-4,5α-epoxy-6β-(N-methyl-trans-2-hexenoamido)morphinan] | 16500 | –
CN(C(=O)Cc1csc2ccccc12)[C@@H]1CC[C@@]2(O)[C@H]3Cc4ccc(O)c5c4[C@@]2(CCN3CC2CC2)[C@H]1O5 [Compound 87, 17-cyclopropylmethyl-3,14β-dihydroxy-4,5α-epoxy-6β-(N-methyl-3-benzo[b]thienylacetoamrido)morphinan] | 2150 | –
CN(C(=O)/C=C/c1ccoc1)[C@@H]1CC[C@@]2(O)[C@H]3Cc4ccc(O)c5c4[C@@]2(CCN3CC2CC2)[C@H]1O5 (relative stereo) [Compound 43, 17-cyclopropylmethyl-3,14β-dihydroxy-4,5α-epoxy-6β-[N-methyl-trans-3-(3-furyl)acrylamido]morphinan] | 32600 | –

Structure (SMILES) | EC50 [1] [nM] | EC50 (24 h, read-out: ED50) [nM]
CN(C(=O)OCc1ccccc1)[C@H]1CC[C@@]2(O)[C@H]3Cc4ccc(O)c5c4[C@@]2(CCN3CC2CC2)[C@H]1O5 [Compound 99, 17-cyclopropylmethyl-3,14β-dihydroxy-4,5α-epoxy-6α-(N-methylbenzyloxycarbamido)morphinan] | 400 | –
CN(C(=O)/C=C/c1ccccc1C(F)(F)F)[C@@H]1CC[C@@]2(O)[C@H]3Cc4ccc(O)c5c4[C@@]2(CCN3CC2CC2)[C@H]1O5 [Compound 55, 17-cyclopropylmethyl-3,14β-dihydroxy-4,5α-epoxy-6β-(N-methyl-2-trifluoromethylcinnamamido)morphinan] | 1730 | –
Cc1cccc(/C=C/C(=O)N(CC(C)C)[C@@H]2CC[C@@]3(O)[C@H]4Cc5ccc(O)c6c5[C@@]3(CCN4CC3CC3)[C@H]2O6)c1 [Compound 57, 17-cyclopropylmethyl-3,14β-dihydroxy-4,5α-epoxy-6β-(N-isobutyl-3-methylcinnamamido)morphinan] | – | 660
CC(C)N(C(=O)/C=C/c1cccc(C(F)(F)F)c1)[C@@H]1CC[C@@]2(O)[C@H]3Cc4ccc(O)c5c4[C@@]2(CCN3CC2CC2)[C@H]1O5 [Compound 64, 17-cyclopropylmethyl-3,14β-dihydroxy-4,5α-epoxy-6β-(N-isopropyl-3-trifluoromethylcinnamamido)morphinan] | 690 | –
CCCCN(Cc1ccccc1)[C@@H]1CC[C@@]2(O)[C@H]3Cc4ccc(O)c5c4[C@@]2(CCN3CC2CC2)[C@H]1O5 [Compound 8, 17-cyclopropylmethyl-3,14β-dihydroxy-4,5α-epoxy-6β-(N-butylbenzylamino)morphinan] | 1200 | –
CN(C(=O)/C=C/c1cccc(OC(F)(F)F)c1)[C@@H]1CC[C@@]2(O)[C@H]3Cc4ccc(O)c5c4[C@@]2(CCN3CC2CC2)[C@H]1O5 [Compound 120, 17-cyclopropylmethyl-3,14β-dihydroxy-4,5α-epoxy-6β-(N-methyl-3-trifluoromethoxycinnamamido)morphinan] | – | 1060
CN(C(=O)C#Cc1cccc(C(F)(F)F)c1)[C@@H]1CC[C@@]2(O)[C@H]3Cc4ccc(O)c5c4[C@@]2(CCN3CC2CC2)[C@H]1O5 [Compound 90, 17-Cyclopropylmethyl-3,14β-dihydroxy-4,5α-epoxy-6β-[N-methyl-3-(3-trifluoromethylphenyl)propiolamido]morphinan] | 4370 | –
CC(C)CN(C(=O)CCCCCCCCCCc1ccccc1)[C@@H]1CC[C@@]2(O)[C@H]3Cc4ccc(O)c5c4[C@@]2(CCN3CC2CC2)[C@H]1O5 [Compound 60, 17-cyclopropylmethyl-3,14β-dihydroxy-4,5α-epoxy-6β-(N-isobutyl-11-phenylundecanoamido)morphinan] | 90 | –
CN(C(=O)/C=C/c1cccc(F)c1)[C@@H]1CC[C@@]2(O)[C@H]3Cc4ccc(O)c5c4[C@@]2(CCN3CC2CC2)[C@H]1O5 [Compound 79, 17-cyclopropylmethyl-3,14β-dihydroxy-4,5α-epoxy-6β-(N-methyl-3-fluorocinnamamido)morphinan] | – | 12200
CC(C)CN(C(=O)CCCCCCCc1ccccc1)[C@@H]1CC[C@@]2(O)[C@H]3Cc4ccc(O)c5c4[C@@]2(CCN3CC2CC2)[C@H]1O5 [Compound 59, 17-cyclopropylmethyl-3,14β-dihydroxy-4,5α-epoxy-6β-(N-isobutyl-8-phenyloctanoamido) morphinan] | 480 | –
O=C(Cc1ccc(Cl)c(Cl)c1)N[C@H]1CC[C@@]2(O)[C@H]3Cc4ccc(O)c5c4[C@@]2(CCN3CC2CC2)[C@H]1O5 [Compound 36, 17-cyclopropylmethyl-3,14β-dihydroxy-4,5α-epoxy-6α-(3,4-dichlorophenylacetoamido) morphinan] | 1010 | –
CN(C(=O)Cc1ccc2ccccc2c1)[C@@H]1CC[C@@]2(O)[C@H]3Cc4ccc(O)c5c4[C@@]2(CCN3CC2CC2)[C@H]1O5 [Compound 83, 17-cyclopropylmethyl-3,14β-dihydroxy-4,5α-epoxy-6β-(N-methyl-2-naphthylacetoamido)morphinan] | 4690 | –
Oc1ccc2c3c1O[C@H]1[C@H](N(CCCc4ccccc4)Cc4ccccc4)CC[C@@]4(O)[C@@H](C2)N(CC2CC2)CC[C@]314 [Compound 12, 17-cyclopropylmethyl-3,14β-dihydroxy-4,5α-epoxy-6β-(N-3-phenylpropylbenzylamino) morphinan] | 130 | –
CN(C(=O)C1c2ccccc2-c2ccccc21)[C@@H]1CC[C@@]2(O)[C@H]3Cc4ccc(O)c5c4[C@@]2(CCN3CC2CC2)[C@H]1O5 [Compound 88, 17-cyclopropylmethyl-3,14β-dihydroxy-4,5α-epoxy-6β-(N-methyl-9-fluorenylamido) morphinan] | 4640 | –
CC(C)CN(CCCCCCc1ccccc1)[C@@H]1CC[C@@]2(O)[C@H]3Cc4ccc(O)c5c4[C@@]2(CCN3CC2CC2)[C@H]1O5 [Compound 98, 17-cyclopropylmethyl-3,14β-dihydroxy-4,5α-epoxy-6β-(N-isobutyl-6-phenylhexylamino)morphinan] | 160 | –
